Where a name gives a salt, the structure may show the parent alone.
Assays:
IRAK1 = biological target: T1, IRAK1 (Homo sapiens, UniProt P51617); experiment: IRAK1 enzymatic assay (ADP-Glo luminescence); format: biochemical; conditions: purified human recombinant His-TEV-IRAK1 (194-712)
T1 construct: His-TEV-IRAK1 (194-712); His (N); TEV cleavage site (N)
In short: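 Recombinant human His-TEV-IRAK1 (194-712), 0.3 μg/ml, preincubated 15 min at RT with compounds (10 μM to 0.5 nM) in 50 mM Hepes pH 7.0, 10 mM MgCl2, 2 mM DTT, 0.1% BSA. ATP-started reaction run 2 hours at RT; ADP formed from ATP hydrolysis/autophosphorylation read by ADP-Glo luminescence.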

IRAK4 = biological target: T2, IRAK4 (Homo sapiens, UniProt Q9NWZ3); experiment: IRAK4 enzymatic assay (ADP-Glo luminescence); format: biochemical; conditions: purified human recombinant His-TEV-IRAK4 (1-460), ATP 2 μM
T2 construct: His-TEV-IRAK4 (1-460); His (N); TEV cleavage site (N)
T2 sequence (Q9NWZ3 1-460): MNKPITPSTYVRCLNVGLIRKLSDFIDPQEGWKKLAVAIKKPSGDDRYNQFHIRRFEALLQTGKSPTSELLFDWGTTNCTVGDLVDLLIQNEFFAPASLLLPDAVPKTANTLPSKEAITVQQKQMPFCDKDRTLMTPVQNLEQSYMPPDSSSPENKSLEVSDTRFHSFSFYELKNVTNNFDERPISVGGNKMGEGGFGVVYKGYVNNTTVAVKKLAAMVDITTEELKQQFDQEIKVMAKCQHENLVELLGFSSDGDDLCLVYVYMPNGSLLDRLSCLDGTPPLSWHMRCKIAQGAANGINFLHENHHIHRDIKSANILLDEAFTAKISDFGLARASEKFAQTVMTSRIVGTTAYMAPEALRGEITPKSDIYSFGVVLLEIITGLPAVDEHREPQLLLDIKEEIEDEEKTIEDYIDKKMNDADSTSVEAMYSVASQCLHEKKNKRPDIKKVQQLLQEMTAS
In short: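 Recombinant His-TEV-IRAK4 (1-460) at 0.3 μg/ml preincubated 15 min at RT with compounds (10 μM to 0.5 nM) in Hepes pH 7.0 buffer with MgCl2/MnCl2. Reaction started with 2 μM ATP and 300 nM STK1-biotin peptide, run 2 h at RT. ADP formed read by ADP-Glo luminescence.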

T1 sequence (P51617 194-712): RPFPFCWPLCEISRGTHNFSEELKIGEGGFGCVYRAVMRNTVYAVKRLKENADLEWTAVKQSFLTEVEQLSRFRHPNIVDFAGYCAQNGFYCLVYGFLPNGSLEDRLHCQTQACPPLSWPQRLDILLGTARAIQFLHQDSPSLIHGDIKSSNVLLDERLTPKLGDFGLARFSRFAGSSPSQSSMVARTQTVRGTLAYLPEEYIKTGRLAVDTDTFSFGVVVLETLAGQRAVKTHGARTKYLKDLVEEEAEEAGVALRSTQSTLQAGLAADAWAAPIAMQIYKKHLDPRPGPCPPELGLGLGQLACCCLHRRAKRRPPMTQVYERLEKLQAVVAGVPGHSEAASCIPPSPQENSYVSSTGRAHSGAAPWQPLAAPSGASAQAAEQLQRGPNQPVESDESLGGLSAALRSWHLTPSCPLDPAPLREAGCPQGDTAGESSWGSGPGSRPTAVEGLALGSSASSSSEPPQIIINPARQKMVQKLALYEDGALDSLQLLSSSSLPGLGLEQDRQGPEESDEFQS

Compound | IC50 (IRAK1) [nM] | IC50 (IRAK4) [nM]
CC(C)(C)OC(=O)N1CCC(n2/c(=N/C(=O)c3cccc(C(F)F)c3)[nH]c3cc(N4CCOCC4=O)ccc32)CC1 [Compound 127, (E)-tert-butyl 4-(2-((3-(difluoromethyl)benzoyl)imino)-5-(3-oxomorpholino)-2,3-dihydro-1H-benzo[d]imidazole-1-yl)piperidine-1-carboxylate] | 100 to 1000 | ≤ 100
O=C(/N=c1\[nH]c2cc(N3CCOCC3=O)ccc2n1C1CCNCC1)c1cccc(C(F)(F)F)c1 [Compound 128, (E)-N-(5-(3-oxomorpholino)-1-(piperidin-4-yl)-1H-benzo[d]imidazole-2(3H)-ylidene)-3-(trifluoromethyl)benzamide hydrochloride] | > 1000 | ≤ 100
O=C(/N=c1\[nH]c2cc(N3CCOCC3=O)ccc2n1C1CCNCC1)c1cccc(C(F)F)c1 [Compound 129, (E)-3-(difluoromethyl)-N-(5-(3-oxomorpholino)-1-(piperidin-4-yl)-1H-benzo[d]imidazole-2(3H)-ylidene)benzamide hydrochloride] | 100 to 1000 | ≤ 100
CC(=O)N1CCC(n2/c(=N/C(=O)c3cccc(C(F)(F)F)c3)[nH]c3cc(N4CCOCC4=O)ccc32)CC1 [Compound 130, (E)-N-(1-(1-acetylpiperidin-4-yl)-5-(3-oxomorpholino)-1H-benzo[d]imidazole-2(3H)-ylidene)-3-(trifluoromethyl)benzamide] | ≤ 100 | ≤ 100
CC(=O)N1CCC(n2/c(=N/C(=O)c3cccc(C(F)F)c3)[nH]c3cc(N4CCOCC4=O)ccc32)CC1 [Compound 131, (E)-N-(1-(1-acetylpiperidin-4-yl)-5-(3-oxomorpholino)-1H-benzo[d]imidazole-2(3H)-ylidene)-3-(difluoromethyl)benzamide] | 100 to 1000 | ≤ 100
CS(=O)(=O)N1CCC(n2/c(=N/C(=O)c3cccc(C(F)(F)F)c3)[nH]c3cc(N4CCOCC4=O)ccc32)CC1 [Compound 132, (E)-N-(1-(1-(methylsulfonyl)piperidin-4-yl)-5-(3-oxomorpholino)-1H-benzo[d]imidazole-2(3H)-ylidene)-3-(trifluoromethyl)benzamide] | 100 to 1000 | ≤ 100
CS(=O)(=O)N1CCC(n2/c(=N/C(=O)c3cccc(C(F)F)c3)[nH]c3cc(N4CCOCC4=O)ccc32)CC1 [Compound 133, (E)-3-(difluoromethyl)-N-(1-(1-(methylsulfonyl)piperidin-4-yl)-5-(3-oxomorpholino)-1H-benzo[d]imidazole-2(3H)-ylidene)benzamide] | ≤ 100 | ≤ 100
CCNC(=O)N1CCC(n2/c(=N/C(=O)c3cccc(C(F)(F)F)c3)[nH]c3cc(N4CCOCC4=O)ccc32)CC1 [Compound 134, (E)-N-ethyl-4-(5-(3-oxomorpholino)-2-((3-(trifluoromethyl)benzoyl)imino)-2,3-dihydro-1H-benzo[d]imidazol-1-yl)piperidine-1-carboxamide] | 100 to 1000 | ≤ 100
CCNC(=O)N1CCC(n2/c(=N/C(=O)c3cccc(C(F)F)c3)[nH]c3cc(N4CCOCC4=O)ccc32)CC1 [Compound 135, (E)-4-(2-((3-(difluoromethyl)benzoyl)imino)-5-(3-oxomorpholino)-2,3-dihydro-1H-benzo[d]imidazol-1-yl)-N-ethylpiperidine-1-carboxamide] | ≤ 100 | ≤ 100
O=C(/N=c1\[nH]c2cc(N3CCOCC3=O)ccc2n1C1CCS(=O)(=O)CC1)c1cccc(C(F)(F)F)c1 [Compound 136, (E)-N-(1-(1,1-dioxidotetrahydro-2H-thiopyran-4-yl)-5-(3-oxomorpholino)-1H-benzo[d]imidazol-2(3H)-ylidene)-3-(trifluoromethyl)benzamide] | 100 to 1000 | ≤ 100
CC(C)Oc1cc2c(cc1N1CCOCC1=O)[nH]/c(=N\C(=O)c1cccc(C(F)F)c1)n2CCCO [Compound 137, (E)-3-(difluoromethyl)-N-(1-(3-hydroxypropyl)-6-isopropoxy-5-(3-oxomorpholino)-1H-benzo[d]imidazol-2(3H)-ylidene)benzamide] | ≤ 100 | ≤ 100
N#Cc1cc2c(cc1N1CCOCC1=O)[nH]/c(=N\C(=O)c1cccc(C(F)(F)F)c1)n2CCCO [Compound 138, (E)-N-(6-cyano-1-(3-hydroxypropyl)-5-(3-oxomorpholino)-1H-benzo[d]imidazol-2(3H)-ylidene)-3-(trifluoromethyl)benzamide] | > 1000 | ≤ 100
O=C(/N=c1\[nH]c2cc(N3CCOCC3=O)c(F)cc2n1CCCO)c1cccc(C(F)(F)F)c1 [Compound 139, (E)-N-(6-fluoro-1-(3-hydroxypropyl)-5-(3-oxomorpholino)-1H-benzo[d]imidazol-2(3H)-ylidene)-3-(trifluoromethyl)benzamide] | 100 to 1000 | ≤ 100
O=C(/N=c1\[nH]c2cc(N3CCOCC3=O)c(F)cc2n1CCCO)c1cccc(C(F)F)c1 [Compound 140, (E)-3-(difluoromethyl)-N-(6-fluoro-1-(3-hydroxypropyl)-5-(3-oxomorpholino)-1H-benzo[d]imidazol-2(3H)-ylidene)benzamide] | 100 to 1000 | ≤ 100
O=C(/N=c1\[nH]c2cc(N3CCOCC3=O)c(Cl)cc2n1CCCO)c1cccc(C(F)(F)F)c1 [Compound 141, (E)-N-(6-chloro-1-(3-hydroxypropyl)-5-(3-oxomorpholino)-1H-benzo[d]imidazol-2(3H)-ylidene)-3-(trifluoromethyl)benzamide] | > 1000 | ≤ 100
O=C(/N=c1\[nH]c2cc(N3CCOCC3=O)c(Cl)cc2n1CCCO)c1cccc(C(F)F)c1 [Compound 142, (E)-N-(6-chloro-1-(3-hydroxypropyl)-5-(3-oxomorpholino)-1H-benzo[d]imidazol-2(3H)-ylidene)-3-(difluoromethyl)benzamide] | 100 to 1000 | ≤ 100
COc1cc2c(cc1N1CCOCC1=O)[nH]/c(=N\C(=O)c1cccc(C(F)(F)F)c1)n2[C@H](C)CCO [Compound 143, (R,E)-N-(1-(4-hydroxybutan-2-yl)-6-methoxy-5-(3-oxomorpholino)-1H-benzo[d]imidazol-2(3H)-ylidene)-3-(trifluoromethyl)benzamide] | 100 to 1000 | ≤ 100
O=C(/N=c1\[nH]c2cc(N3CCCOC3=O)ccc2n1CC(F)CO)c1cccc(C(F)(F)F)c1 (stereo not drawn) [Compound 145, (E)-N-(1-(2-fluoro-3-hydroxypropyl)-5-(2-oxo-1,3-oxazinan-3-yl)-1H-benzo[d]imidazol-2(3H)-ylidene)-3-(trifluoromethyl)benzamide] | ≤ 100 | ≤ 100
N#Cc1cccc(C(=O)/C=C2\Nc3cc(N4CCOCC4=O)ccc3N2CCCO)c1 [Compound 146, (E)-3-(2-(1-(3-hydroxypropyl)-5-(3-oxomorpholino)-1H-benzo[d]imidazol-2(3H)-ylidene)acetyl)benzonitrile] | 100 to 1000 | 100 to 1000
O=C(/C=C1\Nc2cc(N3CCOCC3=O)ccc2N1CCCO)c1cccc(C(F)(F)F)n1 [Compound 147, (E)-4-(1-(3-hydroxypropyl)-2-(2-oxo-2-(6-(trifluoromethyl)pyridin-2-yl)ethylidene)-2,3-dihydro-1H-benzo[d]imidazol-5-yl)morpholin-3-one] | 100 to 1000 | ≤ 100
O=C(/C=C1\Nc2cc(N3CCOCC3=O)ccc2N1CCCO)c1cccc(Br)n1 [Compound 148, (E)-4-(2-(2-(6-bromopyridin-2-yl)-2-oxoethylidene)-1-(3-hydroxypropyl)-2,3-dihydro-1H-benzo[d]imidazol-5-yl)morpholin-3-one] | 100 to 1000 | ≤ 100
O=C(/C=C1\Nc2cc(N3CCOCC3=O)ccc2N1CCCO)c1ccc2ccccc2n1 [Compound 149, (E)-4-(1-(3-hydroxypropyl)-2-(2-oxo-2-(quinolin-2-yl)ethylidene)-2,3-dihydro-1H-benzo[d]imidazol-5-yl)morpholin-3-one] | > 1000 | > 1000
NC(=O)[C@H]1CC[C@@H](n2/c(=N/C(=O)c3cccc(C(F)(F)F)c3)[nH]c3cc(N4CCOCC4=O)ccc32)CC1 [Compound 150, (E)-N-(1-((1s,4s)-4-carbamoylcyclohexyl)-5-(3-oxomorpholino)-1H-benzo[d]imidazol-2(3H)-ylidene)-3-(trifluoromethyl)benzamide] | 100 to 1000 | ≤ 100
O=C(/N=c1\[nH]c2cc(N3CCOCC3=O)ccc2n1CCCO)c1cccc(SC(F)(F)F)c1 [Compound 151, (E)-N-(1-(3-hydroxypropyl)-5-(3-oxomorpholino)-1H-benzo[d]imidazol-2(3H)-ylidene)-3-((trifluoromethyl)thio)benzamide] | ≤ 100 | ≤ 100

— US10059701B2 (Merck Patent GmbH, priority 2015, dated 2018)
